A short description of data set [1]: Hygroscopicity of crystalline form-M. The format is physicochemical. The text has this:
The crystalline form-M of compound of formula-1 of the present invention is non-hygroscopic in nature which is highly advantageous for the formulators.

Data set [2] can be described thus: Solid state stability of crystalline form-M at various conditions (stress, UV light, thermal, humidity). Format: physicochemical. The procedure:
The crystalline form-M of the present invention is stable at various conditions viz.,
a) Stress (10 ton pressure, 3 min) b) UV light (254 nm, 24 hrs) c) Thermal (60° C., 24 hrs) d) Hygroscopicity (75% RH, 24 hrs))

These results are taken from patent publication US20200109114A1, “SOLID STATE FORMS OF N-[2-[(I S)-1 -(3-ETHOXY-4-METHOXYPHENYL)-2-(METHYL SULFONYL)ETHYL]-2,3-DIHYDRO-1,3-DIOXO-L H-ISOINDOL-4-YL]ACETAMIDE AND PROCESS FOR PREPARATION THEREOF” (MSN LABORATORIES PRIVATE LIMITED, R&D CENTER, priority 2016, published 2020).

Consider `CCOc1cc([C@@H](CS(C)(=O)=O)N2C(=O)c3cccc(NC(C)=O)c3C2=O)ccc1OC` [crystalline form-M, N-[2-[(1S)-1-(3-ethoxy-4-methoxyphenyl)-2-(methylsulfonyl)ethyl]-2,3-dihydro-1,3-dioxo-1H-isoindol-4-yl]acetamide], for which, in data set [1], the hygroscopic nature entry is recorded as “non-hygroscopic”. In addition, in data set [2] (Hygroscopicity (75% RH, 24 hrs)), the “stability under hygroscopicity condition” value is given as “stable”. The stability under stress result in data set [2] (Stress (10 ton pressure, 3 min)) was “stable”. The thermal stability result in data set [2] (Thermal (60° C., 24 hrs)) is given as “stable”. Also, the “stability under UV light” value in data set [2] (UV light (254 nm, 24 hrs)) is “stable”.
